In patent US9061984B2 (University of Louisville Research Foundation, Inc., priority 2008, dated 2015):
Values after ≈ are worked out from the molar mass of the structure shown. Values joined by “and” are separate entries in the source; they are usually repeats but may differ in a detail not shown here. Equal values may be shown once. Read-outs that look alike come from different tables or passages of the source.

Assays:
[1] = tested on: 3T3 cells; test: Cell growth inhibition bioassay (sulforhodamine B); format: cell-based, mouse; details: Mus musculus, NIH3T3; 48 h, SRB; read-out: GI50 in indicated cell line: 3T3
Outline: (§1)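 Cells were exposed to compound alongside matched solvent controls, then stained with sulforhodamine B. Percent growth inhibition was calculated from dye absorbance against the control.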

[2] = tested on: DU145 cells; test: Cell growth inhibition bioassay (sulforhodamine B); format: cell-based, human; details: Homo sapiens, DU-145; 48 h, SRB; read-out: GI50 in indicated cell line: DU145
Outline: (§2)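 Cytotoxicity is read by sulforhodamine B colorimetry following the Skehan protocol; values are growth inhibition relative to solvent-only wells.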

[3] = tested on: H460 cells; test: Cell growth inhibition bioassay (sulforhodamine B); format: cell-based, human; details: Homo sapiens, NCI-H460; 48 h, SRB; read-out: GI50 in indicated cell line: H460
Outline: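 Human cancer cells (MCF-7 breast, DU145 and PC3 prostate, H460 large cell lung) were treated with compounds. Growth relative to solvent control was quantified by SRB protein stain.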

[4] = tested on: HT-29 cells; test: Cell growth inhibition bioassay (sulforhodamine B); format: cell-based, human; details: Homo sapiens, HT-29; 48 h, SRB; read-out: GI50 in indicated cell line: HT-29
Outline: as §1

[5] = tested on: K562 cells; test: Cell growth inhibition bioassay (sulforhodamine B); format: cell-based, human; details: Homo sapiens, K562; 48 h, SRB; read-out: GI50 in indicated cell line: K562
Outline: as §1

[6] = tested on: M-14 cells; test: Cell growth inhibition bioassay (sulforhodamine B); format: cell-based, human; details: Homo sapiens, M14; 48 h, SRB; read-out: GI50 in indicated cell line: M-14
Outline: as §1

[7] = tested on: MCF-7 cells; test: Cell growth inhibition bioassay (sulforhodamine B); format: cell-based, human; details: Homo sapiens, MCF7; 48 h, SRB; read-out: GI50 in indicated cell line: MCF-7
Outline: as §2

[8] = tested on: PC3 cells; test: Cell growth inhibition bioassay (sulforhodamine B); format: cell-based; details: Homo sapiens, PC-3; 48 h, SRB; read-out: GI50 in indicated cell line: PC3
Protocol: The cytotoxicity of compounds was assayed as follows. […] Appropriate solvent controls were tested for comparison. The percent inhibition of cell growth relative to the control was evaluated colorimetrically using a sulforhodamine B dye by comparison to the control. The calorimetric procedure followed that published in Skehan et al., J. Nat. Cancer Inst., […], pp. 1107-1112 (1990) and Boyd & Paull, Drug Dev. Res., Vol. 34, pp. 91-109 (1995). […] The cell lines are: 3T3 cells are BALB/3T3 clone A31 embryonic mouse fibroblast cells; H460 cells are human large cell lung cancer cells; DU145 cells are human prostate carcinoma cells; MCF-7 cells are human breast adenocarcinoma cells; M-14 cells are human melanoma cells; HT-29 cells are human colon adenocarcinoma cells; PC3 cells are human prostate adenocarcinoma cells; K562 cells are human chronic myelogenous leukemia cells; and VERO cells are African Green Monkey kidney epithelial cells.

[9] = tested on: Trypanosoma cruzi (Tulahuen C4); test: In vitro anti-T. cruzi activity (β-galactosidase CPRG colorimetric assay in VERO monolayer); format: cell-based; details: for T. cruzi Inhib. (%) / inhibition at 10 µg/mL: 10 μg/mL of each compound, 120 hours; for inhibition at 10 µg/mL / IC50: Trypanosoma cruzi, TULAHUEN, Vero; for inhibition at 10 µg/mL: 120 h, read-out: T. cruzi Inhib. (%)
[10] = tested on: axenic amastigotes of L. amazonensis (strain MHOM/BR/76/LTB-012); test: microbe, parasite or virus in culture; details: Leishmania amazonensis
[11] = Cytotoxicity on VERO cells (MTT), anti-T. cruzi study; details: African green monkey, VERO cells
[12] = tested on: VERO cells; test: as above; details: for IC50: Chlorocebus sabaeus, Vero, read-out: IC50 VERO, Table 3; for IC50 - VERO Cytotoxicity: Table 2
[13] = tested on: peritoneal macrophages; test: Toxicity to peritoneal macrophages (Trypan Blue count); format: cell-based, BALB/C mouse; details: Mus musculus, Peritoneal macrophage, 48 h; Table 7; read-out: IC50 Macrophage
[14] = tested on: L. amazonensis Lma CL1; test: Activity against macrophages infected with Leishmania amastigotes; details: Leishmania amazonensis, Macrophage
Protocol: (§3) A cloned line of Leishmania amazonensis(strain MHOM/BR/76/LTB-012) was used in all experiments. Axenically grown amastigote forms of L. amazonensis were maintained by weekly subpassages in MAA/20 medium (Sereno and Lemesre, Antimicrobial Agents and Chemotherapy 41, 972-976 (1997)) at 32±1° C. in 25 cm^2 tissue culture flasks. L. peruviana (strain MHOM/PE/LCA08) and L. braziliensis (strainMHOM/PE/PER006) were maintained in the promastigote stage in a biphasic medium (blood agar with 0.89% NaCl, pH 7.4) at 24° C., with sub-passage every 3 to 4 days. Promastigotes (5×10^6 parasites) were then transferred to 25 cm2 tissue culture flasks containing 5 ml of M199 medium supplemented with 10% foetal bovine serum (FBS), pH 7.4. After 4 days, exponential phase promastigotes were centrifuged for 10 minutes at 1500 g and 4° C. The supernatant was discarded and replaced by fresh M199 medium supplemented with 20% FBS, pH 5.5. Axenic amastigotes transformation was then induced by increasing the temperature to 34° C. and incubating for 96 h (Teixeira et al., Parasitology Research 88, 963-968 (2002)).
(§4) Extracted cells were immediately deposited on sterile 4×4 mm cover glasses and placed in each well of a 96-well plate. Plates were incubated for 24 h at 37° C., 5% CO2 to allow cell adhesion (Castillo et al, Journal of Ethnopharmacology 112, 410-414 (2007)). Pre-warmed complete M199 medium was used twice to remove non-adherent cells. A neutral red method (Fautz et al., Mutation Research 253, 173-179 (1991)) was employed to determine cell concentration. Approximately 7×10^4 viable cells were deposited in each well for adhesion.
(§5) Infection of macrophages by amastigotes was determined as follows. […] Twelve hours after infection, a solution of the compounds to be tested was added to the cultures at various concentrations and maintained at 37° C. in 5% CO2 for a further forty-eight hours more. The plates were fixed with methanol and stained with 10% Giemsa stain. The percentage of infected macrophages was determined microscopically at 100 times magnification. The number of intracellular amastigotes was determined in 300 cells. Following Delorenzi et al. Antimicrobial Agents and Chemotherapy, 45, 1349-1354 (2001)) the percentage of infection rate (% IR) of each culture was calculated as follows: % IR=100−(infection rate of the treated culture/infection rate of the untreated culture)×100.
(§6) All experiments were performed in triplicate. ANOVA was used to test for statistical significance of differences (Epi-Info, Statview student program). The total parasite burden was calculated as a mean number of amastigotes per cells multiplied by the number of infected macrophages.

[15] = tested on: L. braziliensis PER006; test: as above; details: Leishmania braziliensis, Macrophage, 48 h, read-out: IC50 L. braziliensis PER006
Protocol: as §3, §4, §5, §6

[16] = tested on: L. peruviana LCA08; test: as above; details: Leishmania peruviana, Macrophage, 48 h, read-out: IC50 L. peruviana LCA08
[17] = tested on: VERO cells; test: Cell growth inhibition bioassay (sulforhodamine B); format: cell-based, African Green Monkey; details: Chlorocebus sabaeus, Vero; 48 h, SRB; read-out: GI50 in indicated cell line: VERO
Outline: as §2

[18] = tested on: M. tuberculosis H37Rv; test: Conventional aerobic (MABA) culture assay, luminescence MIC; format: cell-based, Mycobacterium tuberculosis
[19] = tested on: non-replicating persistence Mycobacterium tuberculosis (NRP-TB); test: Low oxygen recovery assay (LORA); format: cell-based; details: value in brackets
[20] = Toxicity to peritoneal macrophages (Trypan Blue count); format: cell-based, BALB/C mouse; details: BALB/C, mouse, Cytotoxicity Macrophages IC50
[21] = tested on: axenic amastigotes of L. amazonensis (strain MHOM/BR/76/LTB-012); details: Table 8b
[22] = Cytotoxicity VERO cell (Table 6); details: African green monkey, VERO cells
[23] = tested on: L. amazonensis
[24] = Table 2, read-out: IC50 - T. cruzi
[25] = Table 3, read-out: IC50 T. cruzi
[26] = 72 h, read-out: IC50 L. amazonensis
[27] = IC50 - VERO Cytotoxicity, Table 2
[28] = 48 h, read-out: IC50 L. amazonensis Lma CL1

SMILES	GI50 [1]	GI50 [2]	GI50 [3]	GI50 [4]	GI50 [5]	GI50 [6]	GI50 [7]	GI50 [8] [µM]	T. cruzi Inhib. (%) [9]	inhibition at 10 µg/mL [9] [%]	IC50 [9, 24] [µg/mL]	IC50 [9, 25] [µM]	IC50 [10, 26] [µM]	IC50 [11, 27] [µg/mL]	IC50 [12] [µM]	IC50 [13] [µM]	IC50 [14, 28] [µM]	IC50 [15] [µM]	IC50 [16] [µM]	other results
C=CCOc1cc(OC)c(C(=O)/C=C/c2ccc3c(c2)OCO3)c(OCC=C)c1 [Compound I-19, (2E)-3-(1,3-Benzodioxol-5-yl)-1-[2-methoxy-4,6-bis(2-propenyloxy)phenyl]-2-propen-1-one]	31.7 µM	17.5 µM	14.5 µM	24.1 µM	12.2 µM	17.2 µM	10.9 µM	9.6	58.82%	74.1	7.33	13.6	6.6	49 (≈ 124 µM)	73.5					IC50 - T. cruzi ([9]; Table 2): 5.35 µg/mL (≈ 13.6 µM); IC50 - VERO Cytotoxicity [12]: 29.00 µg/mL (≈ 73.5 µM)
COc1cc(O)cc(O)c1C(=O)/C=C/c1ccc2c(c1)OCO2 [Compound I-06, (2E)-3-(1,3-Benzodioxol-5-yl)-1-(2,4-dihydroxy-6-methoxyphenyl)-2-propen-1-one]	5.1 µM	12.4 µM	15.6 µM	20.7 µM	16.2 µM	22.6 µM	20.4 µM	18.5	49.61% and 69.78%		2.97	9.4	4.1	8 (≈ 25.5 µM)	25.5	157	16.6	8.6	19.7	
COc1ccc(/C=N\Nc2ncnc3sc4c(c23)CCCC4)cc1 [II-10]	5 µg/mL	7.8 µg/mL	5.8 µg/mL	5.9 µg/mL	4.7 µg/mL	5.5 µg/mL	4.2 µg/mL													GI50 [17]: 6.4 µg/mL (≈ 18.9 µM); Selectivity Index Lab B ([9]; IC50, VERO/IC50, T. cruzi, Lab B): 1.1; IC50 ([9]; Lab B, read-out: T. cruzi IC50 Lab B): 5.4 µg/mL; MIC ([18]; Mycobacterium tuberculosis, 168 h, aerobic, 7 days, H37Rv): 24.1 µg/mL (≈ 71.2 µM); Selectivity Index H37Rv ([18]; VERO vs MABA MIC): 3.2; MIC ([19]; Mycobacterium tuberculosis, anaerobic 10 days, 28 hour recovery): 9.1 µg/mL (≈ 26.9 µM); Selectivity Index LORA ([19]; VERO vs LORA MIC): 8.5; IC50 at 48 h [20]: 21.6 µM; Selectivity Index [21]: 1.3; IC50 [22]: 76.7 µg/mL (≈ 227 µM); IC50 ([10]; read-out: L. amazonensis IC50): 16.1 µM; IC50 ([11]; Cytotoxicity VERO Lab B, Lab B): 6 µg/mL (≈ 17.7 µM)
O=c1[nH]cc(F)c(=O)[nH]1 [Compound 5FU, 5-Fluorouracil, reference compound]	< 1.54 µM	15.4 µM	4.1 µM	8.9 µM	16.7 µM	22.4 µM	6.5 µM	14.6												
C=CCOc1cc(OC)c(C(=O)/C=C/c2ccccn2)c(OCC=C)c1 [Compound I-27, (2E)-1-[2-Methoxy-4,6-bis(2-propenyloxy)phenyl]-3-(2-pyridinyl)-2-propen-1-one]										77.2	0.67	1.9	1.1	1 (≈ 2.85 µM)	2.8	12.5	0.9	1.4	4	Reduction of parasite burden (column After 7 weeks, analyzed after 6 weeks treatment) ([23]; 5 mg/kg/day intralesional, after 6 weeks treatment (footnote d)): 25^d %; Lesion diameter ([23]; compounds 5 mg/kg/day, Glucantime 33 mg/kg/day, intralesional): 4.1 mm; Reduction of parasite burden After 4 weeks ([23]; compounds 5 mg/kg/day, Glucantime 33 mg/kg/day, intralesional, after 4 weeks): −4%; IC50 ([14]; read-out: bioactivities (IC50) in macrophage-infected model): 0.9 to 4 µM
C=CCOc1cc(OC)c(C(=O)/C=C/c2ccc(OC)cc2)c(OCC=C)c1 [Compound I-10, (2E)-1-[2-Methoxy-4,6-bis(2-propenyloxy)phenyl]-3-(4-methoxyphenyl)-2-propen-1-one]	41 µM	21 µM	20 µM	28.4 µM	16.6 µM	27.6 µM	19.5 µM	18.1	62.86%	63.5	7.28	21.4	5.5	48 (≈ 126 µM)	99.9	18.7				IC50 - T. cruzi ([9]; Table 2): 8.14 µg/mL (≈ 21.4 µM); IC50 - VERO Cytotoxicity [12]: 38.00 µg/mL (≈ 99.9 µM)
COc1cc(O)c(C(=O)/C=C/c2ccc3c(c2)OCO3)c(OC)c1 [Compound I-02, (2E)-3-(1,3-Benzodioxol-5-yl)-1-(2-hydroxy-4,6-dimethoxyphenyl)-2-propen-1-one]	39 µM	> 190 µM	> 190 µM	> 190 µM	18.9 µM	> 190 µM	140 µM	118	11.77%	22.8		> 25	> 300							
COc1ccc(/C=C/C(=O)c2c(O)cc(O)cc2OC)cc1 [Compound I-05, (E)-1-(2,4-Dihydroxy-6-methoxyphenyl)-3-(4-methoxyphenyl)-2-propen-1-one]	6.7 µM	9 µM	14 µM	21.6 µM	17 µM	19.6 µM	17.3 µM	19.3	68.88% and 38.57%		5.98	> 25	10	5 (≈ 16.6 µM)		166	14.3	7.66	23	
COc1ccc(/C=C/C(=O)c2c(O)cc(OC)cc2OC)cc1 [Compound I-01, (2E)-1-(2-Hydroxy-4,6-dimethoxyphenyl)-3-(4-methoxyphenyl)-2-propen-1-one]	17.2 µM	30.8 µM	24.1 µM	45.3 µM	20.5 µM	22.5 µM	17.5 µM	15.2	41.36%	29		> 25	17.2							
